Data from US5225530A, “Polypeptide useful for the preparation of antimalarial vaccines and of diagnostic kits for the detection of malarial affections” (priority 1986, dated 1993).

Test system: sporozoites of P. falciparum
Assay: Inhibition of penetration of sporozoites into human hepatocytes
Assay type: cell-based
Details: sera of immunized C57BL/6 mice; 1:5 solution of sample; human hepatoma cells
Experimental: Human hepatoma cells were seeded at a concentration of 10^5 cells/chamber in Lab.-Tek plastic chambers (Miles) and cultivated for 24-48 hours
Then, to each chamber 25 μl was charged of a suspension containing 5-10^4 sporozoites of P. falciparum and 25 μl of a 1:5 solution of the sample under test.
The sporozoites were obtained from salivary glands of Anopheles stephensi infected with P. falciparum.
Two and six days later, the number of infected hepatocytes was determined by immunofluorescence by using monoclonal anti-P. falciparum CS protein antibodies.

## (Asn--Ala--Asn--Pro)40 [(NANP)40]
  inhibition of the penetration of the sporozoites of P. falciparum into the hepatic cells: < 86%
